Activity calls are given as the source filed them.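 The calls were made as follows: active = compounds whose fitted half-maximal toxic concentration is no more than twice their top tested dose; inconclusive = flat fit with 30 to 70% signal loss, or poor fit; inactive = the rest.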

System in one assay: not listed separately
Nature of the assay: cytotoxicity in NIH-3T3 fibroblasts, dose response, cytotoxicity control for antifungal single agent project, cell-based, Alamar Blue, cherry-pick (AID 588634). Conditions: NIH-3T3 fibroblast viability, Alamar Blue fluorescence, 48 h; at 26 µM (top of the series). On the technique in general: Alamar Blue is a resazurin reagent that responds to reducing activity.
`C(C#CCCCCCCCCC[n+]1ccccc1)#CCCCCCCCCC[n+]1ccccc1`: the activity change, negative = toxicity is -33.3% (inactive). The same measure, in the same setting: the result for `CCN1/C(=C/C=C/c2oc3ccc(-c4ccccc4)cc3[n+]2CC)Oc2ccc(-c3ccccc3)cc21` reads 360% (inactive); that for `CCOC(=O)N1C(=O)C2(CCCCC2)N(c2ccc(C)cc2)C1=S`, -0.005% (inactive).

A further assay concerns NIH-3T3 fibroblast viability, Alamar Blue fluorescence, 48 h. The description is as above.
Conditions: not given
A word on the AC50: it is the concentration giving half of the maximal activity seen. Consider `Oc1c(C(c2ccc(Cl)cc2)N2CCCC2)cc(Cl)c2cccnc12` (stereo not drawn), for which the AC50 is 1.47 µM. Take `Oc1ccc(N=Nc2ccc3c(c2)OCCO3)c2ncccc12`: the AC50 was 0.702 µM. As for `CCOc1ccc(N=Nc2ccc(O)c3ncccc23)cc1`, the AC50 was 0.289 µM. On the same count and under the same terms, the result for `Oc1c(C(Nc2nccs2)c2ccc(C(F)(F)F)cc2)ccc2cccnc12` (stereo not drawn) reads 1.74 µM. For the compound `O=Nc1c(-c2cccc([N+](=O)[O-])c2)nc2ncccn12`, the AC50 was 9.99 µM. With `Oc1c(CN2CCN(c3ccc(F)cc3)CC2)cc(Cl)c2cccnc12`, the AC50 was 1.29 µM. Turning to `COc1ccc(C)cc1N=Nc1ccc(O)c2ncccc12`, the AC50 is 0.303 µM.

For `COc1cccc(/C=N/Nc2ncnc3scc(-c4ccccc4)c23)c1O`, the AC50 was 2.07 µM. On the same count and under the same terms, in the case of `O=Cc1ccc(O)c2ncccc12` it was 0.913 µM; in that of `C/C(=N\NC(=O)c1cc2ccccc2cc1O)c1ccccn1`, 1.04 µM. On to `Cc1ccc(C(=O)c2coc3c2C(=O)C(=O)c2ccccc2-3)cc1`, for which the AC50 was 8.17 µM. `O=C(N/N=C/c1c(O)ccc2ccccc12)c1cccc(C(F)(F)F)c1`: the AC50 is 4.34 µM.

For the compound `Oc1c(CN2CCN(c3ccccc3)CC2)cc(Br)c2cccnc12`, the AC50 was 1.39 µM. For the compound `Cc1cc(NC(c2ccc(Cl)cc2)c2ccc3cccnc3c2O)no1` (stereo not drawn), the AC50 was 3.66 µM. Same read-out and setting: in the case of `CN1CCN(C(c2ccc(C(F)(F)F)cc2)c2cc(Cl)c3cccnc3c2O)CC1` (stereo not drawn) it was 1.96 µM.

As to `Oc1c(C(Nc2nc3ccccc3s2)c2ccco2)ccc2cccnc12` (stereo not drawn), the AC50 was 1.85 µM. On the same count and under the same terms, the result for `Oc1ccc(N=Nc2ccc3c(c2)OCCO3)c2cccnc12` reads 3.14 µM; that for `O=[N+]([O-])c1cc(CN2CCN(c3ccccc3)CC2)c(O)c2ncccc12`, 0.109 µM. Take `CCCCC(=O)NC(c1ccco1)c1cc(Cl)c2cccnc2c1O` (stereo not drawn): the AC50 was 0.705 µM. Still for that read-out and setting: the result for `CCCCC(=O)NC(c1ccc(Cl)cc1)c1ccc2cccnc2c1O` (stereo not drawn) reads 1.09 µM; that for `CCCCC(=O)NC(c1ccc(N(CC)CC)cc1)c1ccc2cccnc2c1O` (stereo not drawn), 1.25 µM. Regarding `CN1CCN(C(c2ccc(C(F)(F)F)cc2)c2ccc3cccnc3c2O)CC1` (stereo not drawn), the AC50 is 0.852 µM. The same measure, in the same setting: the result for `O=C(Oc1c(Cl)cc(Cl)c2cccnc12)c1cccs1` reads 0.659 µM; that for `O=C(Oc1c(Cl)cc(Cl)c2cccnc12)c1ccco1`, 0.409 µM; that for `O=[N+]([O-])c1ccc(O)c(/C=N/Nc2ccc(Cl)nn2)c1`, 1.6 µM. Same read-out and setting: the result for `CCN(CC)S(=O)(=O)c1cc(OC)ccc1N=Nc1ccc(O)c2ncccc12` reads 0.753 µM. On to `O=C(N/N=C/c1cc2c3c(c1O)CCCN3CCC2)c1ccccc1O`, for which the AC50 is 6.37 µM.

For the compound `COc1cccc(N=Nc2ccc3cccnc3c2O)c1`, the AC50 is 0.712 µM. Turning to `COc1cccc(N=Nc2ccc(O)c3ncccc23)c1`, the AC50 was 0.279 µM. Consider `O=c1ccc(N=Nc2ccccc2)ccc1O`, for which the AC50 was 1.6 µM.
